Literature values in patent US20260335339A1, “COMPOSITIONS FOR DERMAL/TRANSDERMAL DELIVERY AND COSMETIC USE” (YISSUM RESEARCH DEVELOPMENT COMPANY OF THE HEBREW …, priority 2022, published 2026).

Conditions: lipophilic fluorescent molecule

O=C1OC2(c3ccc(O)cc3Oc3cc(O)ccc32)c2ccc(N=C=S)cc21 [FITC, fluorescein isothiocyanate]
log p: 4.3
